Where a SMILES comes first, the peptide text is derived from it. Where no end group is shown, it is not given here. The star is where a group is joined. Cbz = O=C(OCc1ccccc1)*; CH2F = FC*
Legend:
[1] = biological target: T1, Recombinant mouse Cathepsin L (Mus musculus, UniProt P06797); assay: Inhibition of recombinant mouse Cathepsin L cleavage of rH3-HIS by E64 (immunoblot, FIG. 13); assay type: biochemical; details: pH 7.5 and pH 5.5; E64 10 μM, 50 μM, and 500 μM
T1 construct: purchased R&D Systems 1515-CY-010
Method: Recombinant mouse Cathepsin L was incubated with C-terminally HIS-tagged recombinant histone H3 at both pH 7.5 (left) and pH 5.5 (right) in either buffer alone (−) or in the presence of the cysteine protease inhibitor E64 (+); the final concentration of E64 was 10 μM, 50 μM, and 500 μM.
(§1) Extracts were incubated in buffer (10 mM HEPES, 10 mM KCl, 1.5 mM MgCl2, 0.34M sucrose, 10% glycerol, 5 mM β-mercaptoethanol, all final) with 0.1 μg/μl rH3-HIS (purified from E. coli) and incubated at 37° C. for 1-3 hours. Reactions were stopped by addition of 5×SDS sample buffer and boiling; results were analyzed by immunoblotting with HIS-HRP and/or H3.cs1 antibody. For MS analysis, reactions were quenched by addition of 0.1% (final) TFA. rCathepsin L (R&D Systems, # 1515-CY-010), rCathepsin B (R&D Systems Cat No. BAF965), and rCathepsin K (Calbiochem Cat. No. 342001) were purchased from commercial sources and tested in the assay with rH3-HIS.

[2] = biological target: T2, H3 protease activity in fraction #23 (Mus musculus, UniProt P06797); assay: In vitro H3 cleavage assay of hydroxyapatite fraction #23 +/- protease inhibitors; assay type: biochemical
T2 construct: a double chain mature form at ˜25 kD and ˜5 kD; endogenous in cells; host or cells: chromatin of 3 days +RA differentiating mouse ESCs (LF2), hydroxyapatite fraction #23
Method: as §1
Three days+RA differentiating ESC chromatin pellets were solubilized by sonication in buffer A (80 mM NaPO^−4, 200 mM NaCl), injected onto a 2 or 5 mL hydroxyapatite column (BioRad), and fractionated with a 200 mM to 2M NaCl gradient. Each fraction was then assayed as described above. […] Digest was then acidified with glacial acetic acid and aliquots of samples were analyzed using an LTQ-FT as described above. Data was searched against a mouse database using SEQUEST (Eng et al., Journal of the American Society of Mass Spectrometry 5:976-989 (1994), which is hereby incorporated by reference in its entirety). All spectra of interest were manually validated.
To validate further the identification of Cathepsin L as a histone H3 protease, the enriched fractions were tested with different classes of protease inhibitors in the H3 cleavage assay.

Cathepsin B = biological target: T3, Cathepsin B (Mus musculus, UniProt P10605); assay: Chemical inhibition in RA-differentiating ESCs, Cathepsin B immunoblot; assay type: cell-based; details: 10 uM in cell media, RA differentiation, vs control cells
T3 construct: endogenous in cells; host or cells: mouse ES cells (LF2 line), RA-differentiated
Method: ES cells (LF2 line) were cultured as previously described (Bernstein et al., “Mouse Polycomb Proteins Bind Differentially to Methylated Histone H3 and RNA and are Enriched in Facultative Heterochromatin,” Mol Cell Biol 26:2560-2569 (2006), which is hereby incorporated by reference in its entirety). Cells were grown on gelatin-coated plates without feeder cells and maintained in an undifferentiated state through culture in KODMEM (Invitrogen 1082-9018)), 2 mM L-glutamine (Sigma G7513), 15% ES grade fetal bovine serum (Gibco 10439-024), 10^−4 mM 2-mercaptoethanol, and leukemia inhibitory factor (LIF). To differentiate, cells were plated sparsely at ˜1*10^4 cells/cm^2, allowed to adhere overnight and then fed with differentiation media containing DMEM, 10% FBS, 10^−4 mM 2-mercaptoethanol and, for retinoic acid (RA) differentiation, 100 nM all-trans-RA (Sigma R2625). […]
(§2) To further assess whether Cathepsin L causes histone H3 cleavage in vivo, a commercially available, cell-permeable Cathepsin L specific inhibitor, Cathepsin L Inhibitor I, was used Inhibition of Cathepsin L using a chemical inhibitor allowed the effect of Cathepsin L inhibition to be assessed within a single, wild-type cell line rather than comparing individual cell lines created by drug selection. […]

Cathepsin L [3] = biological target: T4, Cathepsin L (Mus musculus, UniProt P06797); assay: Chemical inhibition of Cathepsin L in RA-differentiating ESCs (immunoblot); assay type: cell-based; details: 10 uM in cell media, RA differentiation
T4 construct: endogenous in cells; host or cells: mouse ES cells (LF2 line), RA-differentiated
Method: (§3) ES cells (LF2 line) were cultured as previously described (Bernstein et al., “Mouse Polycomb Proteins Bind Differentially to Methylated Histone H3 and RNA and are Enriched in Facultative Heterochromatin,” Mol Cell Biol 26:2560-2569 (2006), which is hereby incorporated by reference in its entirety). Cells were grown on gelatin-coated plates without feeder cells and maintained in an undifferentiated state through culture in KODMEM (Invitrogen 1082-9018)), 2 mM L-glutamine (Sigma G7513), 15% ES grade fetal bovine serum (Gibco 10439-024), 10^−4 mM 2-mercaptoethanol, and leukemia inhibitory factor (LIF). To differentiate, cells were plated sparsely at ˜1*10^4 cells/cm^2, allowed to adhere overnight and then fed with differentiation media containing DMEM, 10% FBS, 10^−4 mM 2-mercaptoethanol and, for retinoic acid (RA) differentiation, 100 nM all-trans-RA (Sigma R2625). Embryoid body formation was accomplished by splitting partially trypsinized cells onto non-treated petri dishes and allowing cells to cluster. Chemical inhibition of Cathepsin L was accomplished by adding 10 uM [final] Cathepsin L I inhibitor (Calbiochem, Cat. No. 219402) to the cell media.
Whole cell extracts were prepared by resuspending fresh or flash frozen cell pellets in SDS-Laemmli sample buffer and boiling immediately. […]
as §2

differentiating ESCs = assay: Pluripotency and lineage marker expression in differentiating ESCs (immunoblot, Q-PCR); assay type: cell-based, mouse; details: for Nanog expression: inhibitor vs control cells
Description: FIGS. 15A-15C show the effect of in vivo chemical inhibition of Cathepsin L on the transcriptional profile of differentiating ESCs. Cells were differentiated with RA in the presence of either Cathepsin L I inhibitor or DMSO alone, as in FIG. 6B. mRNA was isolated from those cells at the time points indicated, reverse transcribed into cDNA, and assayed for the expression of specific genes by Q-PCR with SYBR green. The data shown in FIGS. 15A-15C represent the average of two independent experiments.
as §3
RNA was isolated from undifferentiated and +RA differentiating ESCs using Trizol reagent as directed by the manufacturer (Invitrogen Cat. No. 15596-018). RNA was transcribed into cDNA using the First Strand Superscript kit (Invitrogen Cat. No. 18080-051) and analyzed by quantitative PCR using SYBRgreen reagent (Applied Biosystems Cat. No. 4309155).
Importantly, neither Oct-3/4 nor Cathepsin B levels (FIG. 6C, panels d and e) appeared to change upon addition of the inhibitor.

cathepsin D = cathepsin D (Homo sapiens, UniProt P07339); details: cited from earlier work
cathepsin L [4] = biological target: cathepsin L (Homo sapiens, UniProt P07711); details: cited from earlier work
Cbx7-CD protein = biological target: T5, Cbx7-CD protein (Mus musculus, UniProt Q8VDS3); assay: Fluorescence anisotropy of Cbx7-CD binding to H3 peptides; details: p<0.01
T5 construct: the chromodomain of mouse CBX7; made in house
T5 sequence (Q8VDS3 11-69 limits assumed): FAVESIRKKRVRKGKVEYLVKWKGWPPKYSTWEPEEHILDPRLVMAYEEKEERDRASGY
Method: FIG. 7A is an immunoblot showing cleavage of the modified recombinant histone 3 substrates following incubation with rCathepsin L. The four rH3 substrates used in the cleavage assay include: 1=rH3 unmodified, 2=rH3 alkylated to K27me2, 3=rH3 pan-acetylated with acetic anhydride, 4=rH3+K27me2 pan-acetylated with acetic anhydride. FIG. 7B is a graph showing the amount of recombinant H3 cleavage product formed following incubation with Cathepsin L. H3 cleavage reactions were performed as in FIG. 7A using synthesized H3 peptides representing amino acids 15 to 31. Reactions were incubated with ˜250 pmol peptide and quenched with 0.1% TFA before being plated in duplicate for ELISA with the H3cs.1 antibody. Signal was normalized to that of mock reactions for each peptide. Results represent three independent experiments. […] Binding decreases 3-fold with cleaved peptide. p<0.01. Kds are in μM±SEM. Data points represent the mean±SD
What effect the cleavage of the H3 tail, a proteolytic modification rather than a covalent modification, might have on the binding of effector proteins was examined. […]

[5] = biological target: T6, chromodomain of mouse CBX7 (Mus musculus, UniProt Q8VDS3); assay: Peptide pull-down assay; assay type: binding; details: cleaved vs non-cleaved H3 tail peptide
T6 construct: the chromodomain of mouse CBX7; made in house
T6 sequence (Q8VDS3 11-69 limits assumed): T5 sequence (Q8VDS3 11-69 limits assumed)
Method: Peptide pull-down assays were performed as described Wysocka, J. “Identifying Novel Proteins Recognizing Histone Modifications Using Peptide Pull-down Assay,” Methods 40:339-343 (2006), which is hereby incorporated by reference in its entirety, using biotinylated peptides conjugated to streptavidin agarose beads (Pierce Cat. No. 20349). Elutions were loaded onto 10 or 15% SDS-PAGE gels and silver stained.
What effect the cleavage of the H3 tail, a proteolytic modification rather than a covalent modification, might have on the binding of effector proteins was examined. Given that K27 methylation is a well-documented binding site for the chromodomain-containing protein Polycomb (Bernstein et al., “Mouse Polycomb Proteins Bind Differentially to Methylated Histone H3 and RNA and are Enriched in Facultative Heterochromatin,” Mol Cell Biol 26:2560-2569 (2006) and Fischle et al., “Molecular Basis for the Discrimination of Repressive Methyl-lysine Marks in Histone H3 by Polycomb and HP1 Chromodomains,” Genes Dev 17:1870-1881 (2003), which are hereby incorporated by reference in their entirety), the effect of H3 cleavage on Pc binding to H3K27 methylation was tested. […]

[6] = Q-PCR, after 3 days of differentiation, vs control cells

T4 sequence (P06797 114-334): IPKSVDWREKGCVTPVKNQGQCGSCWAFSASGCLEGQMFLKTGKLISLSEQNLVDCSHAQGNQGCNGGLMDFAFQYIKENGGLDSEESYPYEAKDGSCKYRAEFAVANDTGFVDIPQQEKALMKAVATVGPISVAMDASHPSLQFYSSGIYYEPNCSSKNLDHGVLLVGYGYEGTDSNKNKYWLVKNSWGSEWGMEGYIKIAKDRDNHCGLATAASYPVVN
T2 sequence (P06797 114-288 limits assumed): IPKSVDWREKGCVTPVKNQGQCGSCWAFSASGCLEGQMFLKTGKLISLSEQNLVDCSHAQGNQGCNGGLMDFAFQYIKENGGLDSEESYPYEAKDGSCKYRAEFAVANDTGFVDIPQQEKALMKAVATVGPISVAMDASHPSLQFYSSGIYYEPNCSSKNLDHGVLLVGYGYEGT
T2 sequence (P06797 291-334 limits assumed): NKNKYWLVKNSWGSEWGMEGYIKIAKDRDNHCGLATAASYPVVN
T1 sequence (P06797 114-334): as the sequence (P06797 114-334) above
T3 sequence (P10605 80-333): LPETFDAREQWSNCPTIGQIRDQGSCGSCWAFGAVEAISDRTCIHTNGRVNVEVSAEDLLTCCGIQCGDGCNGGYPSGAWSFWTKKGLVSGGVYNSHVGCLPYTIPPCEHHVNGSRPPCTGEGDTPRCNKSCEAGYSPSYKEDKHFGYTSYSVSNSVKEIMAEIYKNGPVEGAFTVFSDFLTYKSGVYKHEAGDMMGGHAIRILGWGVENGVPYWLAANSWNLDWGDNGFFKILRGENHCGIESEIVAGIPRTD
cathepsin D, sequence (P07339 65-412): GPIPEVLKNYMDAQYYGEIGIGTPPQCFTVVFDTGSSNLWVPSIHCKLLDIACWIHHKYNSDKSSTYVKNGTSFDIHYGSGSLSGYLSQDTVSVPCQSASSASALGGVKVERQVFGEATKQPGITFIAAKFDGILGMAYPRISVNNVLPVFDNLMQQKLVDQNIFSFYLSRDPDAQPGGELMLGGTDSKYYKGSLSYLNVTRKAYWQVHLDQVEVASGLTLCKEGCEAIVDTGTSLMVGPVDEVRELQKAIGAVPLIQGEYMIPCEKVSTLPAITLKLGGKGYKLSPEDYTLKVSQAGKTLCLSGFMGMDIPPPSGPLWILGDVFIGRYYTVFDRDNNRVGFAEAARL
cathepsin L, sequence (P07711 114-333, species assumed): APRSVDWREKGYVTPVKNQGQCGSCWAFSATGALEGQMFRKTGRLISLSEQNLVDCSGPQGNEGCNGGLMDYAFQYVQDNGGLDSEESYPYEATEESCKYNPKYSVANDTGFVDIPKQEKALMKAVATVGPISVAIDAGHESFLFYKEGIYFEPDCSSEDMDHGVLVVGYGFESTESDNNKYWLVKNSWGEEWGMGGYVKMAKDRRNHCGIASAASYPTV

In the case of `CC(C)C[C@H](NC(=O)[C@H]1O[C@@H]1C(=O)O)C(=O)NCCCCN=C(N)N` (relative stereo) [E64, L-trans-Epoxysuccinyl-leucylamido(4-guanidino)butane], the “inhibition of recombinant mouse Cathepsin L (rH3-HIS cleavage)” value [1] was “inhibition of recombinant mouse Cathepsin L”, the H3 cleavage activity ([2]; E64 10 μM, lowest concentration tested) was “all cleavage was abolished” and the “inhibition of H3 protease activity in fraction #23” value ([2]; FIG. 4A) was “potent inhibitor of the H3 protease activity”.

With `O=C(NC(Cc1ccccc1)C(=O)NC(Cc1ccccc1)C(=O)CF)OCc1ccccc1` (stereo not drawn) [Cathepsin L Inhibitor I] (Cbz-Phe-Phe-CH2F; configuration not given here) the “Cathepsin B levels” value (Cathepsin B) was “consistency of Cathepsin B levels”, the “all cleavage detected by the H3-general antibody” value (Cathepsin L [3]) was “abolished” and the “histone H3 cleavage (H3-general and H3.cs1 antibodies)” value (Cathepsin L [3]; vs DMSO) was “decreased significantly”. For the same compound, the “processing of Cathepsin L from intermediate form into mature form” value (Cathepsin L [3]; vs DMSO) was “significant failure to fully process Cathepsin L”, the Nestin expression (differentiating ESCs; [6]) was “trend toward maintaining higher expression” and the Pax3 expression (differentiating ESCs; [6]) was “trend toward maintaining higher expression”. The Nanog expression (differentiating ESCs; Q-PCR) was “remains unaffected”, the Nanog expression (differentiating ESCs; Q-PCR, listed as Cathepsin L I inhibitor) was “does not differ significantly” and the Gata6 expression (differentiating ESCs; Q-PCR, vs control) was “decreased expression”. For the same compound, the Sox17 expression (differentiating ESCs; Q-PCR, vs control) was “decreased expression”, the HoxA1 expression (differentiating ESCs; Q-PCR, vs control cells) was “did not show any significant trend” and the Musashi expression (differentiating ESCs; Q-PCR, vs control cells) was “did not show any significant trend”. The “Oct-3/4 loss pattern (pluripotency marker)” value (differentiating ESCs; immunoblot, RA differentiation) was “unchanged”.

For `NC(N)=O` [Urea], the “enhancement of cathepsin D activity, factor” value (cathepsin D) is given as 6 and the “enhancement of cathepsin L activity, factor” value (cathepsin L [4]) is given as 2.5.

For “cleaved peptide: peptide mimicking the cleaved H3 tail, amino acid residues 22-37, K27 methylated (TKAARK(Me)SAPATGGVKK; not fully specified)”, the “decrease in Cbx7-CD binding vs non-cleaved peptide (amino acid residues 18-37)” value (Cbx7-CD protein) was 3 fold and the “CBX7 binding to methylated H3K27” value [5] was “greatly diminished”.
